Here are results for seven molecules from PubChem BioAssay AID504575 (Southern Research Specialized Biocontainment Screening …, 2011).

For the test, the system named is MAGI cell cytotoxicity, 2% serum. In words: viability loss in MAGI reporter cells – cell-based, CXCR4-tropic MAGI assay, 2% serum, set 2, cytotoxicity control for HIV-1 antiviral lead project, dose response (AID 504575).
As to `COc1ccc(Cn2c(O)cc3nn(-c4nc5ccccc5s4)c(=O)c-3c2C)cc1`, the TC50 was 41.1 µM.
For the molecule `Cc1c2c(=O)n(-c3nc4ccccc4s3)nc-2cc(O)n1CCC(C)C`, the TC50 is 65 µM.
Take `COc1ccccc1Cn1c(O)cc2nn(-c3nc4ccccc4s3)c(=O)c-2c1C`: the TC50 was 43.2 µM.
`Cc1c2c(=O)n(-c3nc4ccccc4s3)nc-2cc(O)n1CCc1cccs1`: the TC50 is 74.8 µM.
For the molecule `Cc1c2c(=O)n(-c3nc4ccccc4s3)nc-2cc(O)n1CCc1ccc(O)cc1`, the TC50 was 20.5 µM.
As to `COc1ccc(CCn2c(O)cc3nn(-c4nc5ccccc5s4)c(=O)c-3c2C)cc1`, the TC50 is 13.8 µM.
To `Cc1c2c(=O)n(-c3nc4ccccc4s3)nc-2cc(O)n1Cc1ccccc1Cl` belongs 32.9 µM.
